Assay results reported in article PMC12663368 (Nature Communications, 2025).

Columns and labels:
Type in all cases: cell-based
[1] = test system: SARS-CoV-2 BA.5 Lineage D (Mpro P252L)
[2] = test system: SARS-CoV-2 Wuhan-like Lineage B (Mpro M49L)
[3] = test system: SARS-CoV-2 Wuhan-like Lineage A (Mpro Δ23G/T45I); conditions: for IC50: read-out: Mean of IC50 values ± SD
[4] = test system: SARS-CoV-2 BA.5 Lineage C (Mpro S144A); conditions: for IC50: read-out: Mean of IC50 values ± SD
[5] = read-out: Mean of IC50 values ± SD

| Molecule | Fold-change relative to wild-type [1] [fold] | Resistance level (class by IC50 fold-change) [2] | Fold-change relative to wild-type [3] [fold] | IC50 [3] [µM] | Fold-change relative to wild-type [4] [fold] | IC50 [4] [µM] | IC50 [1, 5] [µM] | Fold-change relative to wild-type [2] [fold] | IC50 [2, 5] [µM] | Resistance level (class by IC50 fold-change) [1] |
| --- | --- | --- | --- | --- | --- | --- | --- | --- | --- | --- |
| remdesivir | 3.41 |  |  |  |  |  |  |  |  |  |
| CC(C)(C)[C@H](NC(=O)C(F)(F)F)C(=O)N1C[C@H]2[C@@H]([C@H]1C(=O)N[C@H](C#N)C[C@@H]1CCNC1=O)C2(C)C [nirmatrelvir] | 3.83 | no meaningful shift | 0.18 | 1.4 ± 0.1 | 7.60 | 37 ± 0.9 | 18.6 ± 0.48 |  |  |  |
| Cn1cnc(Cn2c(=O)[nH]/c(=N\c3cc4cn(C)nc4cc3Cl)n(Cc3cc(F)c(F)cc3F)c2=O)n1 [ensitrelvir] |  |  | 32.06 | 16.7 ± 2.29 | 28.84 | 25.4 ± 8.74 |  | 60.08 | 31.2 ± 1.06 | no meaningful shift |
